Measurements: patent publication US20240416143A1, “PHOTONIC ANTIMICROBIAL WOUND SURFACE DRESSING” (The General Hospital Corporation, priority 2021, published 2024)
Where two headings read alike, the source gives them in different places.

What was measured:
[1] = test system: E. coli; test: MIC of menadione by broth microdilution, with or without aBL; format: cell-based, Escherichia coli ATCC 25922
Method: The MICs of menadione in different bacterial strains were determined by a standard broth microdilution assay according to the Clinical and Laboratory Standards Institute. Briefly, menadione was prepared at 100 mg/mL in Tween 80/DMSO (1:1) as a stock solution. The stock solution was diluted to 2048 μg/mL in BHI and then serial dilutions were performed to 1024-0.015 μg/mL in a 96-well plate. Then, a 10 μL stationary growth-phase culture of 10^8 CFU/mL bacteria in BHI broth was added to the 96-well plate containing the serial dilutions of menadione. The medium containing a similar amount of Tween 80/DMSO (1:1) served as a control. The microplates were incubated at 37° C. for 24 hours and the lowest concentration of the compound capable of completely inhibiting bacterial growth was referred to as the MIC.
However, we investigated the effects of aBL (50 mW/cm^2) in potentiating the antibacterial activities of menadione in the three strains of bacteria. […] The highest fluence that we investigated was 125 J/cm^2, when we irradiated the bacteria for 42 minutes.

[2] = test system: MRSA; test: Photoinactivation of planktonic cultures by menadione + antimicrobial blue light; format: cell-based, methicillin-resistant Staphylococcus aureus; details: menadione ⅛ MIC + aBL 90 J/cm^2 (50 mW/cm^2), 405 nm
Method: (§1) The bacterial cells were grown in BHI broth medium shaken overnight. Cells were collected by centrifugation at 4,000 rpm for 5 minutes and suspended in PBS at a density of 10^8 colony-forming units (CFU)/mL (estimated by measuring the optical density at 600 nm; O.D 0.1=10^8 cells/mL). The microbial suspension in PBS was transferred to a 35×12-mm dish and mixed with different concentrations of menadione: 0, 0.5, 1 and 2 μg/mL for MRSA USA300, AF003 and IQ0064; 0, 1, 10 and 30 μg/mL for P. aeruginosa PA01; and 0, 16, 32, 64 and 128 μg/mL for E. coli ATCC 25922. After incubation in the dark at 25° C. for 1 hour, the planktonic suspension of cells at room temperature was irradiated using aBL (405 nm) at 50 mW/cm^2 with different radiant exposures (0-250 J/cm^2). During the aBL irradiation, 40 μL of samples were withdrawn every 15 minutes, and the CFUs were determined by 10-fold serial dilutions in PBS (10-1 to 10-7 dilution factors), plated on BHI agar plates as described previously [Ref. 17]. CFUs were counted after overnight incubation at 37° C. Experiments were performed in triplicate.

[3] = test system: P. aeruginosa; test: as above; format: cell-based, Pseudomonas aeruginosa PA01; details: menadione ⅛ MIC + aBL 90 J/cm^2 (50 mW/cm^2), 405 nm
Method: as §1

[4] = test system: MRSA; test: General ROS by DCFH-DA assay in bacteria; format: cell-based, methicillin-resistant Staphylococcus aureus
Method: (§2) 1.2.9.1 General ROS measured by […] (DCFH-DA) assay: DCF-DA was purchased from Thermofisher. […] The production of ROS by menadione when combined with blue light was measured in the presence and absence of bacteria. The bacteria (MRSA) was grown in BHI broth medium with shaking overnight. Cells were collected by centrifugation at 4,000 rpm for 5 minutes and resuspended in PBS in the stationary growth phase culture of 1×10^8 CFU/mL. The microbial suspension was transferred to a 35×12-mm dish, mixed with 10 μg/mL of menadione, and stained with 10 μM DCFH-DA solution per the manufacturer's instruction. The solutions (with and without bacteria) were irradiated with the blue light at 50 mW/cm^2 and the samples were collected every 15 minutes to be analyzed by Microplate Spectrofluorometer (SPECTRAmax®, Molecular Devices, USA) at λex=495 nm and λem=525 nm. The control and the menadione/dark groups were generated under the same conditions without irradiation.
We investigated the possibility that minocycline and doxycycline might be acting as a photosensitizer. To do so, the production of ROS by minocycline and doxycycline combined with blue light was measured by the ROS probe DCF in MRSA. From FIG. 28, it can be observed that each of minocycline and doxycycline when combined with blue light at 405 nm produced ROS.

[5] = ROS probes (DCF-DA, SOSG, HPF) in the absence of bacteria
Method: as §2
To do so, the production of ROS by menadione combined with blue light was measured by different ROS probes, DCF-DA, SOSG and HPF, in the presence and absence of MRSA. […] Oxidation of these probes can be detected by monitoring the increasing of fluorescence signals. […]

[6] = in vivo; cited from earlier work

CC1=CC(=O)c2ccccc2C1=O [menadione, 2-methyl-1,4-naphthoquinone]
MIC ([1]; Escherichia coli, light or radiation study, 5 min, aBL 15.62 J/cm^2 (5 mins.), 50 mW/cm^2, read-out: MIC): 256 µg/mL
MIC ([1]; Escherichia coli, light or radiation study, 0.175 h, aBL 31.25 J/cm^2 (10.5 mins.), 50 mW/cm^2, read-out: MIC): 256 µg/mL
MIC ([1]; Escherichia coli, light or radiation study, 0.35 h, aBL 62.5 J/cm^2 (21 mins.), 50 mW/cm^2, read-out: MIC): 4 µg/mL
MIC ([1]; Escherichia coli, light or radiation study, 0 J/cm^2 (Dark), read-out: MIC): 512 µg/mL
MIC ([1]; aBL 125 J/cm^2 (42 mins.), 50 mW/cm^2): completely eradicated
eradication by aBL combined with menadione [2]: 4.59 log10 CFU/mL
eradication by aBL combined with menadione [3]: 4.54 log10 CFU/mL
production of ROS measured by DCF, menadione+aBL vs aBL alone ([4]; MRSA, 10 μg/mL menadione, 180 J/cm^2): two times higher
ROS generation in bacteria by menadione in the dark ([4]; absolute dark): does not appear to generate significant ROS
increase of total ROS, menadione combined with aBL ([4]; bacteria, menadione + aBL): 2.5 fold
fluorescence signal of ROS probes, menadione exposed to blue light ([5]; 405 nm, DCF-DA, SOSG, HPF): higher fluorescence signal
fluorescence signal of ROS probes, menadione dark group ([5]; no irradiation): negligible
adverse effect at high doses [6]: hepatitis
